# Data from EP4603105A1, “PHARMACEUTICAL COMPOSITION CONTAINING CYCLIC COMPOUND HAVING SELECTIVE KRAS INHIBITORY EFFECT AGAINST HRAS AND NRAS” (CHUGAI SEIYAKU KABUSHIKI KAISHA, priority 2022, dated 2024).
# Like-named read-outs stand apart in the source and are kept apart here.
# Assays:
# [1] = biological target: GDP-bound KRAS wild-type protein (Homo sapiens, UniProt P01116); experiment: Binding to KRAS by surface plasmon resonance (SPR), dissociation constant KD
# In short: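 Single-cycle kinetics on GDP-loaded biotin-Avi RAS captured to ~100–300 RU; 75 s ascending injections, 100 µL/min, 30°C. HBS pH 7.4 + 10 mM MgCl2/10 µM GDP/4% DMSO. 1:1 fit, KD.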
# [2] = biological target: GDP-bound NRAS wild-type protein (Homo sapiens, UniProt P01111); experiment: Binding to NRAS by surface plasmon resonance (SPR), KD and KD ratio to KRAS
# Sequence of GDP-bound NRAS wild-type protein (P01111 whole entry): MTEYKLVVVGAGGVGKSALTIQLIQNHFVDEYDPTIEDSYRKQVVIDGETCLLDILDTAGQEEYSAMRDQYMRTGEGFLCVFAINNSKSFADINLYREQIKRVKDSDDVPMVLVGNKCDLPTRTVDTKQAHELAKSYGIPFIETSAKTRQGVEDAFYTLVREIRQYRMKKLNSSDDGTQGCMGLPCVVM
# In short: (§1)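 Compound binding is evaluated by SPR single-cycle kinetics, with concentrations added intermittently from low to high for 75 s each. Target surfaces carry GDP-loaded biotinylated Avi-RAS at about 100–300 RU, regenerated after each cycle; temperature 30°C. A 1:1 binding model gives KD.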
# HRAS wild-type protein = HRAS wild-type protein (Homo sapiens, UniProt P01112); experiment: Binding to HRAS by surface plasmon resonance (SPR), KD and KD ratio to KRAS
# Sequence of HRAS wild-type protein (P01112 whole entry): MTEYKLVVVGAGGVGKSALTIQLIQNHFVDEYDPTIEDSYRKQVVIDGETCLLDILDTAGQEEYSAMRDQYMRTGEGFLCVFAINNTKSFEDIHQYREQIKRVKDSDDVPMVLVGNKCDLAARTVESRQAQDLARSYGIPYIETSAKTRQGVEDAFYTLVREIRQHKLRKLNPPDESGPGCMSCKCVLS
# In short: as §1
# [3] = test system: human lung cancer strain NCI-H441; experiment: NCI-H441 cell proliferation inhibitory activity (CellTiter-Glo, 4 days); assay type: cell-based; conditions: read-out: NCl-H441 IC50
# In short: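 Proliferation was scored by […] measured after the reagent was added to cultures kept at 37°C in 5% carbon dioxide.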
# [4] = Single Cycle Kinetics, 1:1 binding model
# [5] = ratio of KD with respect to GDP-bound NRAS wild-type protein to KD with respect to KRAS
# [6] = ratio of KD with respect to HRAS wild-type protein to KD with respect to KRAS
# [7] = 50% proliferation inhibitory concentration, four days
# [8] = ratio of KD for GDP-bound NRAS wild-type protein to KD for KRAS
# [9] = ratio of KD for HRAS wild-type protein to KD for KRAS
# Sequence of GDP-bound KRAS wild-type protein (P01116 1-188 isoform P01116-2): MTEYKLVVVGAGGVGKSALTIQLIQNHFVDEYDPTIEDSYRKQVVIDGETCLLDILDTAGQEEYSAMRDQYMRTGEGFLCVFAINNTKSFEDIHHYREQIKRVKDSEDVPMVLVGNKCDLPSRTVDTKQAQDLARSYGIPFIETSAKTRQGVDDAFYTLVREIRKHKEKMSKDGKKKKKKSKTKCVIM
SMILES,"Kd [1, 4]","IC50 [3, 7]",Kd ([1]; 1:1 binding model),"IC50 ([3]; NCI-H441 cells, 4 days)",Kd ([1]; Single Cycle Kinetics),"NRAS /KRAS [2, 5]",HRAS /KRAS (HRAS wild-type protein; [6]),"NRAS /KRAS [2, 8]",HRAS /KRAS (HRAS wild-type protein; [9])
CCO[C@@H]1C[C@H]2C(=O)NC3(CCC3)C(=O)N(C)[C@@H](C(CC)CC)C(=O)N(C)[C@H](C(=O)N3CCCC3)CC(=O)N(C)[C@@H](C)C(=O)N[C@@H]([C@@H](C)CC)C(=O)N(C)CC(=O)N(C)[C@H]3C/C=C\CCN(C3=O)[C@@H](CC3CCCCC3)C(=O)N(C)CC(=O)N[C@@H](CCc3cc(F)c(C(F)(F)F)c(F)c3)C(=O)N2C1 [PP1434],0.69 nM,112 nM,,,,A (a compound having 10 or more and less than 20 is denoted as A),A (a compound having 10 or more and less than 20 is denoted as A),,
CC[C@H](C)[C@@H]1NC(=O)[C@H](CC)N(C)C(=O)C[C@@H](C(=O)N(C)C)N(C)C(=O)[C@H](C2CCCC2)N(C)C(=O)C2(CCC2)NC(=O)[C@@H]2C[C@@H](C(F)(F)F)CN2C(=O)[C@H](CCc2cc(F)c(C(F)(F)F)c(F)c2)NC(=O)CN(C)C(=O)[C@H](CC2CCCCC2)N2CC/C=C\C[C@@H](C2=O)N(C)C(=O)CN(C)C1=O [PP1465],0.36 nM,34.1 nM,,,,A (a compound having 10 or more and less than 20 is denoted as A),A (a compound having 10 or more and less than 20 is denoted as A),,
CCO[C@@H]1C[C@H]2C(=O)NC3(CCC3)C(=O)N(C)[C@@H](C3CCCC3)C(=O)N(C)[C@H](C(=O)N(C)C)CC(=O)N(C)[C@@H](Cc3ccc(Cl)c(Cl)c3)C(=O)N[C@@H]([C@@H](C)CC)C(=O)N(C)CC(=O)N(C)[C@H]3CCCCCN(C3=O)[C@@H](Cc3ccc(C(F)(F)F)cc3)C(=O)N(C)CC(=O)N[C@@H](CCc3cc(F)c(C(F)(F)F)c(F)c3)C(=O)N2C1 [PP1174],1 nM,85.2 nM,,,,B (a compound having 3 or more and less than 10 is denoted as B),B (a compound having 3 or more and less than 10 is denoted as B),,
CCC[C@H]1C(=O)N[C@@H]([C@@H](C)CC)C(=O)N2CCC[C@H]2C(=O)N(C)[C@H]2C/C=C\CCN(C2=O)[C@@H](CC2CCCCC2)C(=O)N(C)CC(=O)N[C@@H](CCc2ccc(C(F)(F)F)c(OC)c2)C(=O)N2C[C@@H](C)C[C@H]2C(=O)N(C)C2(CCC2)C(=O)N(C)[C@@H](C2CCCC2)C(=O)N(C)[C@H](C(=O)N(C)C)CC(=O)N1C [PP2374],,,0.85 nM,67.2 nM,,,,A (a compound having 10 or more and less than 20 is denoted as A),A (a compound having 10 or more and less than 20 is denoted as A)
CCC(CC)[C@H]1C(=O)N(C)[C@H](C(=O)N(C)C)CC(=O)N(C)[C@@H](COC)C(=O)N[C@@H]([C@@H](C)CC)C(=O)N(C2CC2)CC(=O)N(C)[C@H]2C/C=C\CCN(C2=O)[C@@H](CC2CCC(F)(F)CC2)C(=O)N(C)CC(=O)N[C@@H](CCc2cc(F)c(C(F)(F)F)c(F)c2)C(=O)N2C[C@H](OC3CCCC3)C[C@H]2C(=O)NC2(CC(C)(C)C2)C(=O)N1C [PP2627],,,2.6 nM,95.2 nM,,,,A (a compound having 10 or more and less than 20 is denoted as A),A (a compound having 10 or more and less than 20 is denoted as A)
CCO[C@@H]1C[C@H]2C(=O)NC3(CCCC3)C(=O)N(C)[C@@H](C3CCCC3)C(=O)N(C)[C@H](C(=O)N3CCOCC3)CC(=O)N(C)[C@@H](CC)C(=O)N[C@@H]([C@@H](C)CC)C(=O)N(C)CC(=O)N(C)[C@H]3C[C@H](C)C(C)CN(C3=O)[C@@H](Cc3ccc(C(F)(F)F)cc3)C(=O)N(C)CC(=O)N[C@@H](CCc3cc(F)c(C(F)(F)F)c(F)c3)C(=O)N2C1 (stereo partly drawn) [PP1348],0.076 nM,8.7 nM,,,,B (a compound having 3 or more and less than 10 is denoted as B),B (a compound having 3 or more and less than 10 is denoted as B),,

# The next lines start with results.
"Kd [1, 4]","IC50 [3, 7]",Kd ([1]; 1:1 binding model),"IC50 ([3]; NCI-H441 cells, 4 days)",Kd ([1]; Single Cycle Kinetics),SMILES,"NRAS /KRAS [2, 5]",HRAS /KRAS (HRAS wild-type protein; [6]),"NRAS /KRAS [2, 8]",HRAS /KRAS (HRAS wild-type protein; [9])
,,1.8 nM,118 nM,,CCOC[C@H]1C(=O)N[C@@H]([C@@H](C)CC)C(=O)N(C)CC(=O)N(C)[C@H]2C/C=C\CCN(C2=O)[C@@H](CC2CCCCC2)C(=O)N(C)CC(=O)N[C@@H](CCc2ccc(C(F)(F)F)c(OC)c2)C(=O)N2C[C@H](OCC)C[C@H]2C(=O)NC2(CC(C)(C)C2)C(=O)N(C)[C@@H](C(CC)CC)C(=O)N(C)[C@H](C(=O)N(C)C)CC(=O)N1C [PP2470],,,A (a compound having 10 or more and less than 20 is denoted as A),A (a compound having 10 or more and less than 20 is denoted as A)
,,7.8 nM,1050 nM,,CCC[C@H]1C(=O)N[C@@H](CC(C)C)C(=O)N2C[C@@H](OC)C[C@H]2C(=O)N(C)[C@H]2C/C=C\CCN(C2=O)[C@@H](Cc2ccc(C)cc2)C(=O)N(C)CC(=O)N[C@@H](CCc2ccc(C(F)(F)F)c(OC)c2)C(=O)N2C[C@H](OCC)C[C@H]2C(=O)NC2(CCC2)C(=O)N(C)[C@@H](C2CCCC2)C(=O)N(C)[C@H](C(=O)N(C)C)CC(=O)N1C [PP2548],,,A (a compound having 10 or more and less than 20 is denoted as A),B (a compound having 3 or more and less than 10 is denoted as B)
,,,9.8 nM,0.1 nM,CCO[C@@H]1C[C@H]2C(=O)NC3(CC(C)(C)C3)C(=O)N(C)[C@@H](C3CCCC3)C(=O)N(C)[C@H](C(=O)N(C)C)CC(=O)N(C)[C@@H]([C@H](C)OC)C(=O)N[C@@H]([C@@H](C)CC)C(=O)N(C)CC(=O)N(C)[C@H]3C/C=C\CCN(C3=O)[C@@H](Cc3ccc(C(F)(F)F)cc3)C(=O)N(C)CC(=O)N[C@@H](CCc3ccc(C(F)(F)F)c(OC)c3)C(=O)N2C1 [PP3167],,,B (a compound having 3 or more and less than 10 is denoted as B),A (a compound having 10 or more and less than 20 is denoted as A)
,,4.7 nM,295 nM,,CCC[C@H]1C(=O)N[C@@H](CC(C)C)C(=O)N(CCOC)CC(=O)N(C)[C@H]2C/C=C\CCN(C2=O)[C@@H](Cc2ccc(C)cc2)C(=O)N(C)CC(=O)N[C@@H](CCc2ccc(C(F)(F)F)c(Cl)c2)C(=O)N2C[C@H](OCC)C[C@H]2C(=O)NC2(CCC2)C(=O)N(C)[C@@H](C2CCCC2)C(=O)N(C)[C@H](C(=O)N(C)C)CC(=O)N1C [PP2546],,,B (a compound having 3 or more and less than 10 is denoted as B),B (a compound having 3 or more and less than 10 is denoted as B)
,,0.31 nM,8.6 nM,,CCOC[C@H]1C(=O)N[C@@H]([C@@H](C)CC)C(=O)N(C)CC(=O)N(C)[C@H]2C/C=C\CCN(C2=O)[C@@H](Cc2ccc(C)cc2)C(=O)N(C)CC(=O)N[C@@H](CCc2ccc(C(F)(F)F)c(OC)c2)C(=O)N2C[C@@H](C)C[C@H]2C(=O)NC2(CC(C)(C)C2)C(=O)N(C)[C@@H](C2CCCC2)C(=O)N(C)[C@H](C(=O)N(CC)CC)CC(=O)N1C [PP2405],,,A (a compound having 10 or more and less than 20 is denoted as A),A (a compound having 10 or more and less than 20 is denoted as A)
,,0.33 nM,9.8 nM,,CCO[C@H](C)[C@@H]1NC(=O)[C@H](CC(C)C)N(C)C(=O)C[C@@H](C(=O)N(C)CC)N(C)C(=O)[C@H](C2CCCC2)N(C)C(=O)C2(CC(C)(C)C2)NC(=O)[C@@H]2C[C@H](C)CN2C(=O)[C@H](CCc2cc(F)c(C(F)(F)F)c(F)c2)NC(=O)CN(C)C(=O)[C@H](Cc2ccc(C)cc2)N2CC/C=C\C[C@@H](C2=O)N(C)C(=O)CN(C)C1=O [PP2414],,,A (a compound having 10 or more and less than 20 is denoted as A),A (a compound having 10 or more and less than 20 is denoted as A)
0.18 nM,55.4 nM,,,,CCO[C@@H]1C[C@H]2C(=O)NC3(CCC3)C(=O)N(C)[C@@H](C3CCCC3)C(=O)N(C)[C@H](C(=O)N(C)C)CC(=O)N(C)[C@@H](CC)C(=O)N[C@@H]([C@@H](C)CC)C(=O)N(C)CC(=O)N(C)[C@H]3C/C=C\CCN(C3=O)[C@@H](Cc3ccc(C(F)(F)F)cc3)C(=O)N(C)CC(=O)N[C@@H](CCc3ccc(Cl)c(Cl)c3)C(=O)N2C1 [PP1249],A (a compound having 10 or more and less than 20 is denoted as A),A (a compound having 10 or more and less than 20 is denoted as A),,
0.032 nM,2.3 nM,,,,CCCOC[C@H]1C(=O)N[C@@H]([C@@H](C)CC)C(=O)N(C)CC(=O)N(C)[C@H]2C/C=C\CCN(C2=O)[C@@H](Cc2ccc(C(F)(F)F)cc2)C(=O)N(C)CC(=O)N[C@@H](CCc2cc(F)c(C(F)(F)F)c(F)c2)C(=O)N2C[C@H](OCC)C[C@H]2C(=O)NC2(CC(C)(C)C2)C(=O)N(C)[C@@H](C2CCCC2)C(=O)N(C)[C@H](C(=O)N(C)C)CC(=O)N1C [PP1398],A (a compound having 10 or more and less than 20 is denoted as A),A (a compound having 10 or more and less than 20 is denoted as A),,
0.094 nM,43.9 nM,,,,CC[C@H](C)[C@@H]1NC(=O)[C@H](CC)N(C)C(=O)C[C@@H](C(=O)N(C)C)N(C)C(=O)[C@H](C2CCCC2)N(C)C(=O)C2(CCC2)NC(=O)[C@@H]2CCCN2C(=O)[C@H](CCc2cc(F)c(C(F)(F)F)c(F)c2)NC(=O)CN(C)C(=O)[C@H](Cc2ccc(C(F)(F)F)cc2)N2CC/C=C\C[C@@H](C2=O)N(C)C(=O)CN(C)C1=O [PP1135],A (a compound having 10 or more and less than 20 is denoted as A),A (a compound having 10 or more and less than 20 is denoted as A),,
